The test system of one experiment is R. eutropha. Description: Growth experiments in mineral salts medium with sulfur-containing carbon sources. The note with it: for Use as sole carbon source for growth: R. eutropha strain H16. It is filed as cell-based, R. eutropha H16. As to the method: Bacterial strains and culture conditions. R. eutropha H16 (DSM 428) and R. eutropha PHB^−4 (DSM 541) were cultivated in nutrient broth (NB) growth medium or in mineral salts medium (MSM) (Schlegel et al., (1961) Arch. Mikrobiol. 38, 209-222) at 30° C. in Erlenmeyer flasks under aerobic conditions on a rotary shaker with 130 strokes/min. In order to promote PHA accumulation, the ammonia concentration was reduced to 0.05% (w/v). Carbon sources were added from filter-sterilized 20% (w/v) stock solutions at the concentrations indicated in the text.
Bacterial strains and culture conditions. R. eutropha H16 (DSM 428) and R. eutropha PHB-4 (DSM 541) were cultivated in nutrient broth (NB) growth medium or in mineral salts medium (MSM) (Schlegel, 1961, supra) at 30° C. in Erlenmeyer flasks under aerobic conditions on a rotary shaker with 130 strokes/min. In order to promote PHA accumulation, the ammonia concentration was reduced to 0.05% (w/v). Carbon sources were added from filter-sterilized stock solutions at the concentrations indicated in the text.

In the next experiment the test system is P. putida. Briefly: Growth on MSM agar plates containing ATAs as sole carbon sources. To be noted: sole carbon source; for Growth on MSM agar plates: P. putida. It is filed as cell-based, Pseudomonas putida KT2440. Further details: key to Growth on MSM agar plates: +: growth; ++: good growth; −: no growth; *: thiol odor detected. An excerpt: (§1) Bacterial strains and culture conditions. The PHA-negative mutant R. eutropha PHB^−4 (DSM 541) and a recombinant strain of R. eutropha PHB^−4 harbouring plasmid pBBR1::phaC1 expressing the PHA synthase 1 of Pseudomonas mendocina, as well as Pseudomonas putida KT2440 (Worsey & Williams, “Metabolism of toluene and xylenes by Pseudomonas putida (arvilla) mt-2: evidence for a new function of the TOL plasmid” in J Bacteriol 124:7-13 (1975)), P. aeruginosa PAO1 (ATCC 15692), P. oleovorans (ATCC 29347), and P. mendocina (DSM 50017) were used. Cultivations were performed in nutrient broth (NB) medium or mineral salts medium (MSM) according to Schlegel (1961), supra, to which different alkylthioalkanoic acids were added as carbon sources from filter-sterilized 10% (w/v) stock solutions at the concentrations indicated in the text. Fed batch cultivations were carried out under aerobic conditions at 30° C. in 2 l Erlenmeyer flasks containing 500 ml of medium which were agitated at 130 r.p.m. In order to promote PHA accumulation, the ammonia concentration was reduced to 0.05% (w/v) in MSM.
(§2) Growth and PHA accumulation of bacteria on alkylthioalkanoic acids. To evaluate the capabilities of various pseudomonades to use alkylthioalkanoic acids (ATAs) as carbon and energy sources for the synthesis of sulfur containing PHAs, growth experiments were carried out employing MSM agar plates which contained propylthioundecanoic acid (PTUD), propylthiooctanoic acid (PTO), octylthiohexanoic acid (OTHx), butylthiovaleric acid (BTV), or propylthiopropionic acid (PTP) as carbon sources.

For a further experiment, the system named is P. mendocina. The description is as above. The note with it: sole carbon source. It is filed as cell-based, Pseudomonas mendocina. Set-up: key: +: growth; ++: good growth; −: no growth; *: thiol odor detected.
Source text: as §1, §2

For a further experiment, the system named is P. aeruginosa. The experiment is described as above. Further details: key: +: growth; ++: good growth; −: no growth; *: thiol odor detected. Type of experiment: cell-based, Pseudomonas aeruginosa PAO1. To be noted: sole carbon source.
Source text: as §1, §2

The subject of the next experiment is P. oleovorans. The experiment is described as above. It is filed as cell-based, Pseudomonas oleovorans. Set-up: key: +: growth; ++: good growth; −: no growth; *: thiol odor detected. The note with it: sole carbon source.
Source text: as §1, §2

The next experiment has as its system Pseudomonas strains. Briefly: Growth experiments of pseudomonades on alkylthioalkanoic acids. Type of experiment: cell-based. To be noted: for Use as sole carbon source for growth: all Pseudomonas strains investigated; for Concentration above which cell growth was impaired: pseudomonades.
Source text: as §1, §2

Experiment [1] has as its system R. eutropha PHB-4 harboring pBBR1::phaC1. Description: Growth in MSM containing PTO as the sole carbon source. It is filed as cell-based.
Source text: as §1
Since growth of R. eutropha PHB-4 harboring pBBR1::phaC1 in MSM containing PTO as the sole carbon source was very poor, cultivations were carried out in complex medium (NB) or in MSM containing sodium gluconate as second utilizable carbon source in addition to PTO. […]

For the compound `CC(S)CC(=O)O` (stereo not shown) [3-mercaptobutyric acid], the “Use as sole carbon source for growth” value in the experiment with R. eutropha is reported as “not able to use”.
As to `O=C(O)CCS` [3-mercaptopropionic acid], in the experiment with R. eutropha, the “Use as sole carbon source for growth” value is reported as “not able to use”. The “Concentration in the medium above which growth was impaired” value in the experiment on R. eutropha (mineral salts medium plus readily utilized carbon source such as gluconic acid, R. eutropha and other bacteria) is listed as “higher than 0.1 % (w/v)”.
As to `CCCCSCCCCC(=O)O` [BTV], the “Growth on MSM agar plates” value in the experiment with P. putida (0.3% (w/v)), in the experiment with P. mendocina (0.3% (w/v)), in the experiment on P. aeruginosa (0.3% (w/v)) and in the experiment with P. oleovorans (0.3% (w/v)) was “+*” in each case. Also, the “Use as sole carbon source for growth” value with Pseudomonas strains was “able to use”. The “Concentration above which cell growth was impaired” value with Pseudomonas strains was > 0.4 % (w/v).
As for `O=C(O)CCSCCC(=O)O` [TDP, 3,3′-thiodipropionic acid], the “Use as sole carbon source for growth” value in the experiment on R. eutropha is “not able to use”. Further, the “Concentration up to which no toxic effects on growth were exerted” value in the experiment on R. eutropha (mineral salts medium plus readily utilized carbon source such as gluconic acid) is ≤ 1.5 % (w/v).
Consider octylthiohexanoic acid [OTHx], for which the “Growth on MSM agar plates” value in the experiment on P. putida (0.6% (w/v)), in the experiment on P. mendocina (0.6% (w/v)), in the experiment on P. aeruginosa (0.6% (w/v)) and with P. oleovorans (0.6% (w/v)) was “++” in each case. For the same compound, the “Use as sole carbon source for growth” value with Pseudomonas strains is listed as “able to use”.
As for propylthiooctanoic acid [PTO], the “Growth on MSM agar plates” value in the experiment on P. putida (0.4% (w/v)) is reported as “+”; with P. mendocina (0.4% (w/v)), “++”; with P. aeruginosa (0.4% (w/v)), “+”; in the experiment on P. oleovorans (0.4% (w/v)), “+”. Also, the “Use as sole carbon source for growth” value with Pseudomonas strains is on record as “able to use”. Besides, the “Concentration above which cell growth was impaired” value in the experiment on Pseudomonas strains is recorded as “higher than 0.8 % (w/v)”. For the same compound, in experiment [1], the “Growth with the substance as the sole carbon source” value was “very poor”.
Consider propylthiopropionic acid [PTP], for which the “Growth on MSM agar plates” value with P. putida (0.2% (w/v)), with P. mendocina (0.2% (w/v)), in the experiment with P. aeruginosa (0.2% (w/v)) and in the experiment on P. oleovorans (0.2% (w/v)) was “−” throughout. Moreover, the “Use as sole carbon source for growth” value in the experiment on Pseudomonas strains is given as “not used by any bacterium for growth”.
Take propylthioundecanoic acid [PTUD]: the “Growth in comparison to other pseudomonades” value with P. putida (P. putida KT2440) is reported as “significantly lower”. For the same compound, the “Growth on MSM agar plates” value in the experiment with P. putida (0.4% (w/v)) is “+*”; with P. mendocina (0.4% (w/v)) it was “++*”; in the experiment on P. aeruginosa (0.4% (w/v)), “++*”; with P. oleovorans (0.4% (w/v)) it was “++*”. In addition, in the experiment with Pseudomonas strains, the “Use as sole carbon source for growth” value is “able to use”.

(Values after patent publication US6495152B2, “Sulfur containing polyhydroxyalkanoate compositions and method of production” (Tepha, Inc., priority 2000, dated 2002).)
